Marks after values point to notes of the source that are not given here.
How the values were obtained:
Type in all cases: in vivo
[1] = system: Bottytis cinerea; test: Excised lettuce leaves, post-harvest pathogen stress: radius of colonized tissue; conditions: for Average Disease Progression: radius of colonized tissue 3 days post-inoculation
Procedure: Waldmann's MTO dark green Grand Rapids leaf lettuce seed, lot# 15529, was purchased from Johnny's Selected Seeds, Albion, Me., and grown 8 plants per 1 gallon pot. Circular steel-blue blotter papers (Anchor Paper Co, St. Paul, Minn.) were steam autoclaved and fitted into disposable petri dishes. […]
Blotters were saturated with 4.5 ml sterile tap water. Individual leaves (20) were excised and placed into a treatment solution for 5-10 seconds or left non-treated. Excess fluid was removed from the leaf surface. These leaves were then placed singly, 1 leaf per dish and adaxial side up, on the moist blotters. Dish lids were replaced and dishes stacked, bagged and returned to the petri dish box for 24 hour dark storage at room temperature (65-68° F.).
Inoculum (Bottytis cinerea) was grown on potato dextrose agar (PDA) plates until dense conidia production was present. These were blended into a paste with non-inoculated PDA and sterile tap water. Inoculum concentration was determined by dilution plating to be 1960 cfu/ml.
A small spot of inoculum paste was dotted onto the center of 16 of the 20 leaf pieces per treatment stack 24 hours after test substance application.
Disease progression assessment was made at 3 days±2 hours post-inoculation by measuring the radius of colonized tissue in mm.

[2] = system: cabbage; test: Cabbage cold shock and heat treatment: fresh and dry weights; design: Avg. Fresh Weights ± SD / Avg. Dry Weights ± SD: unit not given here
From the text: Seeds of Heads Up cabbage were obtained from Harris Seeds, Rochester, N.Y. and grown in 7″×5¼″×2¼″ (17.78 cm×13.34×5.72 cm) Kord inserts (Park Seeds, Greenwood, S.C.) containing Bacto potting soil (Michigan Peat Company, Houston, Tex.). After plants had germinated, cabbage seedlings were thinned to six plants per insert. Inserts were kept in 12″×8¾″ (30.48 cm×22.23 cm) perma nest trays (Park Seed) with two inserts per tray. Each treatment consisted of three replicate trays containing a total of eighteen cabbage plants. After 12 days, some of the plant were sprayed with Glypure® at 25 ppm, 100 ppm, and 200 ppm. Treated plants were given a second application of Glypure® 7 days later. Untreated and treated plants were subjected to freeze and heat shock treatments 24 hours later. Cold shock was administered by exposing plants to −3° C. for 2 hours and 20 minutes. Heat treatment was provided by placing plants in an oven for 5 hours at 46.5° C. One week following the temperature treatments, the plants were harvested and the fresh and dry weights were determined.

[3] = system: cabbage; test: Cabbage drought stress: fresh and dry weights; conditions: drought, water withheld 13 days, 5, 15, 50 ppm
Procedure: Market Prize, F1 cabbage seed, lot 88955, as described in example 7, was treated identically as in example 7, except that drought stress was imposed by withholding water 7 days following the second spray and continuing to withhold water for 13 sequential days thereafter. Drought tolerance was assessed by measuring both the fresh and dried weights of the plants.

[4] = system: Sclerotinia minor; test: Lettuce pathogen stress: spray treatment, then stem inoculation, disease severity rating; conditions: for Disease Severity Rating: lettuce, 1-9 rating scale
Procedure: Waldmann's MTO dark green Grand Rapids leaf lettuce seed, lot#15529, was purchased from Johnny's Selected Seeds, Albion, Me., and grown 8 plants per 1 gallon pot, 1 pot per experimental unit and 3 experimental units per each of 4 replications. The plants were spray-treated first following “row closure” and again 14 days later with 8 ml per pot. The pathogen stress (Sclerotinia minor hyphal fragments and sclerotia, cultured on potato dextrose agar) was applied to the plant stems at the soil/stem interface at 14 days following the second treatment application.
Treatments consisted of non-inoculated and inoculated groups of non-treated (NTC), water and 0.05% surfactant-blank (SB) controls and 15 and 60 ppm of glycolic acid.
Disease assessment was made just prior to harvest by means of a 1-9 based rating scale. Extensive decomposition of the controls made accurate yield fresh and dry weights impossible. The results in Table 1 below show the data for each treatment and the rating scale definitions.

[5] = Cold Stress (−3° C., 2 hours 20 minutes), 25 ppm
[6] = Cold Stress (−3° C., 2 hours 20 minutes), 200 ppm
[7] = Heat Stress (46.5° C., 5 hours), 25 ppm
[8] = Heat Stress (46.5° C., 5 hours), 200 ppm

O=C(O)CO [glycolic acid]
Average Disease Progression ([1]; 10 ppm leaf dip): 4.0* mm
disease severity versus control lettuce ([1]; 10 ppm, lettuce leaves, α=0.05): statistically significant (α=0.05) decrease
Average Disease Progression ([1]; 25 ppm leaf dip): 9.8 mm
Average Disease Progression ([1]; 75 ppm leaf dip): 9.4 mm
Average Disease Progression ([1]; 150 ppm leaf dip): 13.6 mm
Average Disease Progression ([1]; 500 ppm leaf dip): 12.1 mm
Average Disease Progression ([1]; 1000 ppm leaf dip): 11.6 mm
reduction in fresh and dry weights caused by the adverse temperatures, versus untreated plants ([2]; 200 ppm): statistically significantly lower
Avg. Dry Weights ± SD [2, 5]: 3.1 ± 0.1
Avg. Fresh Weights ± SD [2, 5]: 28.6 ± 2.7
Avg. Dry Weights ± SD [2, 6]: 3.2 ± 0.2
Avg. Fresh Weights ± SD [2, 6]: 31.4 ± 1.3
Avg. Dry Weights ± SD [2, 7]: 2.5 ± 0.3
Avg. Fresh Weights ± SD [2, 7]: 10.2 ± 2.6
Avg. Dry Weights ± SD [2, 8]: 3.5 ± 0.1
Avg. Fresh Weights ± SD [2, 8]: 15.2 ± 0.6
fresh weight of the cabbage compared to controls ([3]; FIG. 3): statistically significantly increased
dry weight of the cabbage compared to controls ([3]; FIG. 4): statistically significantly increased
Disease Severity Rating ([4]; 15 ppm spray): 3.0*
Disease Severity Rating ([4]; 60 ppm spray): 3.5*
disease severity versus control lettuce ([4]; all glycolic acid treatments (15 and 60 ppm), α=0.05): statistically significant (α=0.05) decrease
